Reference: paper PMC7442133, “Reduced treatment frequencies with bumped kinase inhibitor 1369 are effective against porcine cystoisosporosis” (International Journal for Parasitology: Drugs and Drug …, 2020)

How the values were obtained:
[1] = Fecal drug kinetics: BKI concentrations in pooled feces by LC-MS/MS; type: in vivo, piglets
Protocol: Additionally, to determine exposure to BKI 1369 and its metabolites, BKI 1318 and BKI 1817, pooled fecal samples per group were collected before treatment (−24 h), 2, 24 and 48 h after treatment and at the end of the study (SD 29; experiment I). Approximately 1 g of feces was soaked overnight in 3 ml phosphate buffered saline (PBS, pH 7.4). The following day, 12 ml of acetonitrile containing 100 μM propanolol as an internal standard was added and the mixture was thoroughly vortexed and centrifuged at 1000×g for 30 min. Clear supernatant was then transferred to Eppendorf tubes and concentrated in a miVac® Duo Concentrator (SP Scientific, Pennsylvania, USA) at 35 °C. Control/blank samples spiked with known amounts of target analyte were processed in tandem to provide a standard curve. The concentrated samples were shipped to the University of Washington and were stored at −20 °C until analysis by liquid chromatography-tandem mass spectrometry (LC-MS/MS) to determine fecal pharmacokinetics. All LC-MS/MS analyses were carried out on a Waters Acquity UPLC coupled with a Xevo TQS Micro and analyzed using MassLynx software (Waters Corporation, Milford, MA, USA). Extraction and LC-MS/MS conditions are described in detail in the Supplementary File S1.
Tissue and feces from vehicle control treated piglets were used as blanks or standards. Calibration curves for BKI 1369, BKI 1318, and BKI 1817 were prepared by adding 2 μL BKI in dimethylsulfoxide (DMSO) to 18 μL tissue or feces controls to generate nominal concentrations of 0.004, 0.008, 0.02, 0.04, 0.08, 0.2, 0.4, 0.8, 2, 5, 10, and 20 μM. Calibration curves were generated separately for each tissue type and feces.
5 μL of tissue homogenate curves and samples were added to tubes that contained 95 μL of 80:20 acetonitrile: water. As an internal standard, propranolol was added to each sample to a final concentration of 20 nM. Samples were dried to completion using a miVac Duo Concentrator (SP Scientific, Pennsylvania, USA) at 35 °C. Sample processing for feces was similar but utilized a slightly different process to concentrate the sample as explained in the methods. Dried Samples were sealed and shipped to the University of Washington for LC-MS/MS analysis.

C. suis merozoites = experiment: Merozoite replication (growth) inhibition in infected IPEC-1 cultures, free merozoites counted 9 dpi; type: cell-based, Cystoisospora suis; settings: for Merozoite replication at 9 dpi: 50 nM, P < 0.05 vs DMSO-only and no-treatment; for Decrease of total merozoite counts: 400 nM once at 2 dpi, vs DMSO-only and no-treatment controls
Protocol: The laboratory strain C. suis Wien I ([Joachim and Mundt, 2011]), was maintained by passage in suckling piglets every 3–6 months and infectivity in vivo was assessed regularly at the Institute of Parasitology, University of Veterinary Medicine, Vienna. Oocysts were purified from collected feces, brought to sporulation and stored as described elsewhere ([Worliczek et al., 2013]). For in vitro studies, sporozoites were excysted ([Worliczek et al., 2013]), enumerated with a hemocytometer and used immediately for infection of semi-permanent intestinal porcine epithelial cells (IPEC-1). For in vivo studies, sporulated oocysts were washed with tap water and enumerated prior to infection of piglets.
IPEC-1 cells were maintained in culture medium at 37 °C and 5% CO2 (DHEM/HAM12 supplemented with 5% fetal calf serum and penicillin/streptomycin; Gibco via Thermo Fisher, Vienna, Austria). Cells (4 × 10^4) were used to seed 24-well plates and grown to confluence. All BKI compounds were stored as 20 mM stock solutions in 100% dimethyl sulfoxide (DMSO) at −20 °C. Cell viability in the presence of DMSO and BKIs was determined by colorimetric cell proliferation (WST-1) assays ([Shrestha et al., 2019]). In addition IPEC-1 cells were infected with serial dilutions of C. suis sporozoites, obtained after excystation to evaluate the growth curves of merozoites during 5–9 days of cultivation. To determine the effect of BKI 1369 on parasite replication, sporozoites (5 × 10^2) were added to each well one day after seeding of host cells and incubated with different concentrations of BKI 1369 at 40 °C for various time periods or a DMSO control, in triplicate.
In order to test whether BKI 1369 affects initial host cell invasion by C. suis, freshly excysted sporozoites were pre-incubated with BKI 1369 or DMSO for 6 h at 37 °C. Subsequently, sporozoites were washed with medium and used for infection of cell monolayers (5 × 10^2/well), in triplicate. Readout for both growth (merozoite replication) and invasion-inhibition experiments was microscopical evaluation by counting free merozoites 9 days post-infection (dpi) from culture supernatants. Supernatants were collected and free merozoites were counted in pooled samples at 9 dpi from quadruplicate wells in C-Chip disposable hemocytometers (NanoEnTek/Roth Lactan, Graz, Austria). All assays included DMSO and no-treatment controls in quadruplicate.
Statistical calculations for in vivo trials were performed with RStudio version 1.1.453 (RStudio Team, 2018), descriptive statistics with Microsoft Excel 2010 (Microsoft Inc., Vienna, Austria) and GraphPad Prism version 5.04 for Windows (GraphPad Software, San Diego, California USA). Differences in clinical and parasitological parameters between groups were analyzed with ANOVA in the case of normal distribution and variance homogeneity of the data, or a Kruskal-Wallis rank sum test if this was not the case. In the event of significance for the omnibus tests, parametric or non-parametric post-hoc tests for multiple comparisons were performed (according to Tukey and Conover, respectively), with P-value adjustment after Bonferroni. In vitro assays were evaluated by t-tests with significance reported at P < 0.05. For testing of efficacy in vitro, the percentage of growth/invasion inhibition was calculated as follows: % inhibition = (1−No. of merozoites counted at 9 dpi in BKI 1369 treated culture /No. of merozoites counted at 9 dpi in DMSO-only treated culture)x100

[2] = Group A (20 mg BKI 1369/kg BW; 0 dpi), SD 2, −24 h (before treatment)
[3] = Group A (20 mg BKI 1369/kg BW; 0 dpi), SD 3, 2 h post first-dose
[4] = Group A (20 mg BKI 1369/kg BW; 0 dpi), SD 4, 24 h post first-dose
[5] = Group A (20 mg BKI 1369/kg BW; 0 dpi), SD 5, 48 h post first-dose
[6] = Group A (20 mg BKI 1369/kg BW; 0 dpi), SD 29, 624 h post first-dose
[7] = Group A: single treatment 20 mg BKI 1369/kg on SD 3, pooled feces
[8] = Group A: single treatment 20 mg BKI 1369/kg on SD 3, pooled feces, post dose
[9] = Group B (20 mg BKI 1369/kg BW; 2 dpi), SD 4, −24 h (before treatment)
[10] = Group B (20 mg BKI 1369/kg BW; 2 dpi), SD 5, 2 h post first-dose
[11] = Group B (20 mg BKI 1369/kg BW; 2 dpi), SD 6, 24 h post first-dose
[12] = Group B (20 mg BKI 1369/kg BW; 2 dpi), SD 7, 48 h post first-dose
[13] = Group B (20 mg BKI 1369/kg BW; 2 dpi), SD 29, 576 h post first-dose
[14] = Group B: single treatment 20 mg BKI 1369/kg on SD 5, pooled feces
[15] = Group B: single treatment 20 mg BKI 1369/kg on SD 5, pooled feces, post-dose
[16] = Group C (20 mg BKI 1369/kg BW; 2 and 4 dpi), SD 4, −24 h (before treatment)
[17] = Group C (20 mg BKI 1369/kg BW; 2 and 4 dpi), SD 5, 2 h post first-dose
[18] = Group C (20 mg BKI 1369/kg BW; 2 and 4 dpi), SD 6, 24 h post first-dose
[19] = Group C (20 mg BKI 1369/kg BW; 2 and 4 dpi), SD 7, 48/2 h post 2nd dose
[20] = Group C (20 mg BKI 1369/kg BW; 2 and 4 dpi), SD 8, 72/24 h post 2nd dose
[21] = Group C (20 mg BKI 1369/kg BW; 2 and 4 dpi), SD 9, 96/48 h post 2nd dose
[22] = Group C (20 mg BKI 1369/kg BW; 2 and 4 dpi), SD 29, 576/528 h post 2nd dose
[23] = Group C: 20 mg BKI 1369/kg on SD 5 and SD 7, pooled feces, post first-dose

SMILES	Concentration in pooled fecal samples [1, 2] [µM]	Concentration in pooled fecal samples [1, 3] [µM]	Concentration in pooled fecal samples [1, 4] [µM]	Concentration in pooled fecal samples [1, 5] [µM]	Concentration in pooled fecal samples [1, 6] [µM]	Cmax [1, 7] [nM]	Fecal Tmax [1, 8] [h]	Concentration in pooled fecal samples [1, 9] [µM]	Concentration in pooled fecal samples [1, 10] [µM]	Concentration in pooled fecal samples [1, 11] [µM]	Concentration in pooled fecal samples [1, 12] [µM]	Concentration in pooled fecal samples [1, 13] [µM]	Cmax [1, 14] [nM]	Fecal Tmax [1, 15] [h]	Concentration in pooled fecal samples [1, 16] [µM]	Concentration in pooled fecal samples [1, 17] [µM]	Concentration in pooled fecal samples [1, 18] [µM]	Concentration in pooled fecal samples [1, 19] [µM]	Concentration in pooled fecal samples [1, 20] [µM]	Concentration in pooled fecal samples [1, 21] [µM]	further results
CCOc1ccc2cc(-c3nn(CC4CCN(C)CC4)c4ncnc(N)c34)ccc2n1 [BKI 1369]	0.0	0.8	8.1	5.5	0.0	8100	24	0.0	0.0	0.8	3.0	0.0	3000	48	0.0	0.0	4.5	37.0	19.7	29.2	Concentration in pooled fecal samples [1, 22]: 0.0 µM; Fecal Tmax [1, 23]: 48 h; Time of fecal peak, in general ([1]; all groups, metabolite levels continued to rise beyond 48 h): 24 to 48 h; Merozoite replication at 9 dpi (C. suis merozoites; incubation 0–3 dpi): significantly inhibited merozoite replication; Merozoite replication at 9 dpi (C. suis merozoites; incubation 3–6 dpi): significantly inhibited merozoite replication; Decrease of total merozoite counts (C. suis merozoites): 96.1%; Concentrations giving significant reduction of merozoite replication at 9 dpi (C. suis merozoites; single application 2 dpi): ≥ 200 nM
CCOc1ccc2cc(-c3nn(CC4CCNCC4)c4ncnc(N)c34)ccc2n1 [BKI 1318]	0.0	0.0	0.3	0.4	0.0	400	48	0.0	0.0	0.0	0.7	0.0	700	48	0.0	0.0	0.3	1.9	3.6	7.0	Concentration in pooled fecal samples [1, 22]: 0.3 µM; Cmax ([1]; Group C: 20 mg BKI 1369/kg on SD 5 and SD 7, pooled feces): 7000 nM; Fecal Tmax [1, 23]: 96 h; Excretion via the feces (in words) ([1]; after oral BKI 1369, piglets): relatively low excretion via the feces; Decrease of total merozoite counts (C. suis merozoites): 85.1%
